# Ends that are not written are not given here.
# Key:
# Mice [1] = test: Appetite suppression in mice, infant formula milk (Complan) consumption; assay type: in vivo
# Experimental: (§1) Mice were deprived of their normal feed for two days and given free access to a 20% sucrose solution on the first day of feed deprivation. After the 2-day feed deprivation period, mice were injected intraperitoneally with 0.5 ml of a solution containing the test substance. Thirty minutes after injection, individual mice were placed in one of eight 15 cm^2 test box with a stainless steel grid floor and a glass drinking tube which projected into the box. The drinking tube was connected to a reservoir containing a 20% sucrose solution, and the interior of the drinking tube contained an electrode enabling the detection of drinking contacts with the solution by measuring the flow of a weak (unnoticeable) electric current through mice by means of an electronic apparatus connected to the drinking tube electrode and the stainless steel grid floor. Consumption of the sucrose solution was measured over a 10 minute period by electronically recording the total amount of contact with the sucrose solution during the test session. The degree of appetite suppression produced by a given test substance was determined by statistical comparison of the duration of sucrose consumption by control (vehicle treated) mice with that of mice treated with a test substance. The degree of appetite suppression in a treated group of mice was expressed as percent of the control groups response.
# The method is as in Example 5, but instead of 20% sucrose, a solution of infant formula milk (Complan®) is used. The test substance is dissolved in a vehicle consisting of phosphate buffered saline with 1% albumin. Test substances dissolved in vehicle are injected either intravenously (IV) in a volume of 100 microliters, or intra-cerebroventricularly (ICV) in a volume of 10 microliters.
# Mice were tested for appetite suppression as described in Example 8 after treatment with a test substance consisting of synthetic human GLP-2.
# fasted rats = conditions: cited from earlier work
# Mice [2] = test: Appetite suppression in mice, 20% sucrose solution consumption; assay type: in vivo; conditions: intraperitoneal injection, 50 micrograms
# Experimental: as §1, with “response. […]” for “response.”
molecule,measurement,setting,value
"CC[C@H](C)[C@H](NC(=O)[C@H](Cc1ccccc1)NC(=O)[C@H](CC(=O)O)NC(=O)[C@H](CCCNC(=N)N)NC(=O)[C@H](C)NC(=O)[C@H](C)NC(=O)[C@H](CC(C)C)NC(=O)[C@H](CC(N)=O)NC(=O)[C@H](CC(=O)O)NC(=O)[C@H](CC(C)C)NC(=O)[C@@H](NC(=O)[C@@H](NC(=O)[C@H](CC(N)=O)NC(=O)[C@H](CCSC)NC(=O)[C@H](CCC(=O)O)NC(=O)[C@H](CC(=O)O)NC(=O)[C@H](CO)NC(=O)[C@H](Cc1ccccc1)NC(=O)[C@H](CO)NC(=O)CNC(=O)[C@H](CC(=O)O)NC(=O)[C@H](C)NC(=O)[C@@H](N)Cc1c[nH]cn1)[C@@H](C)O)[C@@H](C)CC)C(=O)N[C@@H](CC(N)=O)C(=O)N[C@@H](Cc1c[nH]c2ccccc12)C(=O)N[C@@H](CC(C)C)C(=O)N[C@H](C(=O)N[C@@H](CCC(N)=O)C(=O)N[C@H](C(=O)N[C@@H](CCCCN)C(=O)N[C@H](C(=O)N[C@H](C(=O)N[C@@H](CC(=O)O)C(=O)O)[C@@H](C)O)[C@@H](C)CC)[C@@H](C)O)[C@@H](C)CC [synthetic human GLP-2, human GLP-2]",suppression of milk consumption,"Mice [1]; ICV injection, 3 micrograms",32%
same,suppression of milk consumption,"Mice [1]; ICV injection, 10 micrograms",35%
same,suppression of milk consumption,"Mice [1]; IV injection, 3 micrograms",24%
GLP-1,effect on feeding,"fasted rats; fasted rats, intracerebroventricular (ICV) administration",inhibited feeding
same,effect on feeding behaviour,fasted rats; peripheral administration,no effect on feeding behaviour
Glucagon,effect on food intake,"fasted rats; fasted rats, intraperitoneal administration of pharmacological doses",no effect on food intake
"HADGSFSDEMNTVLDNLATRDFINWLLHTKITD [synthetic porcine GLP-2, porcine GLP-2]",suppression of sucrose consumption,Mice [2],38%

# — patent US5912229A, “Use of a pharmaceutical composition comprising an appetite-suppressing peptide” (Novo Nordisk Als, priority 1996, dated 1999)
